Experimental data from ChEMBL document CHEMBL2331351, “5-Oxo-ETE receptor antagonists” (J Med Chem, 2013).
The source made the active and inactive calls. The calls are words filed in the database; no cut-off is given here.

Columns and labels:
Format in all cases: functional
Oxoeicosanoid receptor 1 [1] = molecular target: T1, Oxoeicosanoid receptor 1 (Homo sapiens, UniProt Q8TDS5); test: Antagonist activity at OXE receptor in human neutrophils assessed as 5-oxo-ETE-induced Ca2+ mobilization incubated for 2 mins prior to 5-oxo-ETE addition measured at 30 uM after 1 min by spectrofluorimetric analysis
Oxoeicosanoid receptor 1 [2] = molecular target: T1, Oxoeicosanoid receptor 1; test: Antagonist activity at OXE receptor in human neutrophils assessed as induction of Ca2+ mobilization at 30 uM after 2 mins by spectrofluorimetric analysis
Oxoeicosanoid receptor 1 [3] = molecular target: T1, Oxoeicosanoid receptor 1; test: Antagonist activity at OXE receptor in human neutrophils assessed as 5-oxo-ETE-induced Ca2+ mobilization incubated for 2 mins prior to 5-oxo-ETE addition measured after 1 min by spectrofluorimetric analysis
Oxoeicosanoid receptor 1 [4] = molecular target: T1, Oxoeicosanoid receptor 1; test: Agonist activity at OXE receptor in human neutrophils assessed as 5-oxo-ETE-induced Ca2+ mobilization incubated for 2 mins prior to 5-oxo-ETE addition measured after 1 min by spectrofluorimetric analysis
Oxoeicosanoid receptor 1 [5] = molecular target: T1, Oxoeicosanoid receptor 1; test: Antagonist activity at OXE receptor in human neutrophils assessed as 5-oxo-ETE-induced Ca2+ mobilization incubated for 2 mins prior to 5-oxo-ETE addition measured at 1 uM after 1 min by spectrofluorimetric analysis
Oxoeicosanoid receptor 1 [6] = molecular target: T1, Oxoeicosanoid receptor 1; test: Antagonist activity at OXE receptor in human neutrophils assessed as LTB4-induced Ca2+ mobilization incubated for 2 mins prior to 5-oxo-ETE addition measured after 1 min by spectrofluorimetric analysis

T1 sequence (Q8TDS5 whole entry): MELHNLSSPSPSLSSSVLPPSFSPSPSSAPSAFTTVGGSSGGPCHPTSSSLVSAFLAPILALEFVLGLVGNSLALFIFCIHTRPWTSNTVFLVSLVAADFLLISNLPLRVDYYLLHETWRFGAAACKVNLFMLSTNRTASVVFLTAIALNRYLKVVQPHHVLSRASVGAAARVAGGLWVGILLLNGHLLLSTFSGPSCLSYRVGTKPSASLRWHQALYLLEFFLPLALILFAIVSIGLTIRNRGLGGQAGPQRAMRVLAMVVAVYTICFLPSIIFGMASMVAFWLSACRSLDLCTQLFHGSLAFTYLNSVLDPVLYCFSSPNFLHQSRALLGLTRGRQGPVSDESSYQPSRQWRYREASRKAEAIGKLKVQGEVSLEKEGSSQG

IC50 (Oxoeicosanoid receptor 1 [3]) [µM]	Activity (Oxoeicosanoid receptor 1 [4])	other results	SMILES
> 30	inactive	Activity (Oxoeicosanoid receptor 1 [1]): inactive; Activity (Oxoeicosanoid receptor 1 [2]): inactive	O=C(O)CCCC(=O)n1ccc2ccccc21
–	inactive	–	O=C(O)CCCC(=O)/C=C/c1ccccc1
–	inactive	–	O=C(O)CCCC(=O)/C=C/c1cccc2ccccc12
17.7	–	–	CCCCCCc1ccc2c(ccn2C(=O)CCCC(=O)O)c1
1.55	–	Activity (Oxoeicosanoid receptor 1 [5]): Active; Activity (Oxoeicosanoid receptor 1 [6]): inactive	CCCCCCc1cc2ccccc2n1C(=O)CCCC(=O)O
11.8	–	–	CCCCCCc1cccc2ccn(C(=O)CCCC(=O)O)c12
–	inactive	–	O=C(O)CCCc1cc2ccccc2o1
20.7	–	–	CCCCCCc1cn(C(=O)CCCC(=O)O)c2ccccc12
18	–	–	CCCCCCc1ccc2ccn(C(=O)CCCC(=O)O)c2c1
